From patent US20240217983A1, “GPR119 AGONISTS” (Kallyope, Inc., priority 2021, published 2024)

Biological target: T1, human GPR119 (hGPR119) (Homo sapiens, UniProt Q8TDV5)
T1 construct: expressed in transfected cells
T1 sequence (Q8TDV5 1-335): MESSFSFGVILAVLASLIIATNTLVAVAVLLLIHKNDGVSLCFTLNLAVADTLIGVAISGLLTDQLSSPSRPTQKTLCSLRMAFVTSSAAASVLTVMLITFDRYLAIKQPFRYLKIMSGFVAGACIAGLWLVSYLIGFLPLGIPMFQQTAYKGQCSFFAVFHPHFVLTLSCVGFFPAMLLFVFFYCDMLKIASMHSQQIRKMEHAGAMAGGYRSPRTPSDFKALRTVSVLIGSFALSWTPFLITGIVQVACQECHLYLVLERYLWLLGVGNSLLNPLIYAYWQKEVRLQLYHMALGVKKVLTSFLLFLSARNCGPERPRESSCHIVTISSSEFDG
Test: cAMP accumulation assay (Cisbio cAMP Gs dynamic HTRF kit) in CHO-K1 cells stably expressing human GPR119
Assay type: cell-based
Details: 4-parameter fit; for Emax: 1 h, % activity normalized to Max and Min controls; for EC50: 60 minutes at 37° C.
Outline: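 CHO-K1 cells stably expressing hGPR119, used as assay-ready frozen stocks at ~10,000 cells/well, exposed to compound dose-response in stimulation buffer with Tween 80 for 60 min at 37° C. cAMP read by HTRF (665/620 nm ratio), normalised to Max/Min controls; EC50 and Max activity from 4-parameter fit.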

SMILES | Emax | EC50
O=C(CCCCS(=O)(=O)O)N1CC2CCC1CN2C(=O)Cc1ccc(OCCCC2CCN(c3ncc(Cl)cn3)CC2)cc1F (centres unmarked) [Example 14, 5-(5-(2-(4-(3-(1-(5-chloropyrimidin-2-yl)piperidin-4-yl)propoxy)-2-fluorophenyl)acetyl)-2,5-diazabicyclo[2.2.2]octan-2-yl)-5-oxopentane-1-sulfonic acid] | 100 to 130% | ≤ 0.1 µM
O=C(CCCCS(=O)(=O)O)N1CCN(C(=O)Cc2ccc(OCCCC3CCN(c4ncc(Cl)cn4)CC3)cc2F)C2CC21 (centres unmarked) [Example 17, 5-(5-(2-(4-(3-(1-(5-chloropyrimidin-2-yl)piperidin-4-yl)propoxy)-2-fluorophenyl)acetyl)-2,5-diazabicyclo[4.1.0]heptan-2-yl)-5-oxopentane-1-sulfonic acid] | 100 to 130% | 0.1 to 1 µM
O=C(Cc1ccc(OCCCC2CCN(c3ncc(Cl)cn3)CC2)cc1F)N1CC2(CCCN2C[C@H](O)[C@@H](O)[C@H](O)[C@H](O)CO)C1 [Example 61, 2-(4-(3-(1-(5-chloropyrimidin-2-yl)piperidin-4-yl)propoxy)-2-fluorophenyl)-1-(5-((2S,3R,4R,5R)-2,3,4,5,6-pentahydroxyhexyl)-2,5-diazaspiro[3.4]octan-2-yl)ethan-1-one] | ≥ 130% | ≤ 0.1 µM
O=C(Cc1ccc(OCCC2CCC23CCN(c2ncc(Cl)cn2)CC3)cc1F)N1CCN(C[C@H](O)[C@@H](O)[C@H](O)[C@H](O)CO)CC1 (stereo partly drawn) [Example 113, 2-(4-(2-(7-(5-chloropyrimidin-2-yl)-7-azaspiro[3.5]nonan-1-yl)ethoxy)-2-fluorophenyl)-1-(4-((2S,3R,4R,5R)-2,3,4,5,6-pentahydroxyhexyl)piperazin-1-yl)ethan-1-one] | 50 to 100% | > 10 µM
O=C(Cc1ccc(OCCCC2CCN(c3ncc(Cl)cn3)CC2)cc1F)N1C[C@@H]2CCN(C(=O)CCCCS(=O)(=O)O)[C@@H]2C1 [Example 6, 5-((3aS,6aS)-5-(2-(4-(3-(1-(5-chloropyrimidin-2-yl)piperidin-4-yl)propoxy)-2-fluorophenyl)acetyl)hexahydropyrrolo[3,4-b]pyrrol-1(2H)-yl)-5-oxopentane-1-sulfonic acid] | ≥ 130% | ≤ 0.1 µM
O=C(CCCCS(=O)(=O)O)N1CCN(C(=O)Cc2ccc(OCCCC3CCN(c4ncc(Cl)cn4)CC3)cc2F)CC1 [Example 23, 5-(4-(2-(4-(3-(1-(5-chloropyrimidin-2-yl)piperidin-4-yl)propoxy)-2-fluorophenyl)acetyl)piperazin-1-yl)-5-oxopentane-1-sulfonic acid] | 100 to 130% | ≤ 0.1 µM
O=C(Cc1ccc(OCCCC2CCN(c3ncc(Cl)cn3)CC2)cc1F)N1CC2(CN(C[C@H](O)[C@@H](O)[C@H](O)[C@H](O)CO)C2)C1 [Example 26, 2-(4-(3-(1-(5-chloropyrimidin-2-yl)piperidin-4-yl)propoxy)-2-fluorophenyl)-1-(6-((2S,3R,4R,5R)-2,3,4,5,6-pentahydroxyhexyl)-2,6-diazaspiro[3.3]heptan-2-yl)ethan-1-one] | 100 to 130% | ≤ 0.1 µM
O=C(Cc1ccc(OCCCCC2CCN(c3ncc(Cl)cn3)CC2)cc1F)N1CCN(C[C@H](O)[C@@H](O)[C@H](O)[C@H](O)CO)CC1 [Example 86, 2-(4-(4-(1-(5-chloropyrimidin-2-yl)piperidin-4-yl)butoxy)-2-fluorophenyl)-1-(4-((2S,3R,4R,5R)-2,3,4,5,6-pentahydroxyhexyl)piperazin-1-yl)ethan-1-one] | 100 to 130% | ≤ 0.1 µM
O=C(Cc1ccc(OCCCC2CCN(c3ncc(Cl)cn3)CC2)cc1F)N1CC2(C1)OCC2NC[C@H](O)[C@H](O)[C@H](O)CO (stereo partly drawn) [Example 82, 2-(4-(3-(1-(5-chloropyrimidin-2-yl)piperidin-4-yl)propoxy)-2-fluorophenyl)-1-(3-(((2S,3S,4R)-2,3,4,5-tetrahydroxypentyl)amino)-1-oxa-6-azaspiro[3.3]heptan-6-yl)ethan-1-one] | 100 to 130% | ≤ 0.1 µM
O=C(Cc1ccc(OCCCC2CCN(c3ncc(Cl)cn3)CC2)cc1F)N1C[C@H]2CN(C(=O)CCCCS(=O)(=O)O)[C@H]2C1 [Example 7, 5-((1S,5R)-3-(2-(4-(3-(1-(5-chloropyrimidin-2-yl)piperidin-4-yl)propoxy)-2-fluorophenyl)acetyl)-3,6-diazabicyclo[3.2.0]heptan-6-yl)-5-oxopentane-1-sulfonic acid] | 100 to 130% | 0.1 to 1 µM
O=C(CCCCS(=O)(=O)O)N1C[C@@H]2CN(C(=O)Cc3ccc(OCCCC4CCN(c5ncc(Cl)cn5)CC4)cc3F)C[C@@H]2C1 [Example 10, 5-((3aR,6aS)-5-(2-(4-(3-(1-(5-chloropyrimidin-2-yl)piperidin-4-yl)propoxy)-2-fluorophenyl)acetyl)hexahydropyrrolo[3,4-c]pyrrol-2(1H)-yl)-5-oxopentane-1-sulfonic acid] | 100 to 130% | ≤ 0.1 µM
O=C(Cc1ccc(OCCCC2CCN(c3ncc(Cl)cn3)CC2)cc1F)N1CCC2(CCCN2C[C@H](O)[C@@H](O)[C@H](O)[C@H](O)CO)C1 (stereo in doubt) [Example 75, 2-(4-(3-(1-(5-chloropyrimidin-2-yl)piperidin-4-yl)propoxy)-2-fluorophenyl)-1-(1-((2S,3R,4R,5R)-2,3,4,5,6-pentahydroxyhexyl)-1,7-diazaspiro[4.4]nonan-7-yl)ethan-1-one] | ≥ 130% | ≤ 0.1 µM
O=C(Cc1ncc(OCCCC2CCN(c3ncc(Cl)cn3)CC2)cc1F)N1CCN(C[C@H](O)[C@@H](O)[C@H](O)[C@H](O)CO)CC1 [Example 89, 2-(5-(3-(1-(5-chloropyrimidin-2-yl)piperidin-4-yl)propoxy)-3-fluoropyridin-2-yl)-1-(4-((2S,3R,4R,5R)-2,3,4,5,6-pentahydroxyhexyl)piperazin-1-yl)ethan-1-one] | 100 to 130% | 0.1 to 1 µM
COCc1cnc(N2CCC(CCCCOc3cc(F)c(CC(=O)N4CCN(C[C@H](O)[C@@H](O)[C@H](O)[C@H](O)CO)CC4)c(F)c3)CC2)nc1 [Example 101, 2-(2,6-difluoro-4-(4-(1-(5-(methoxymethyl)pyrimidin-2-yl)piperidin-4-yl)butoxy)phenyl)-1-(4-((2S,3R,4R,5R)-2,3,4,5,6-pentahydroxyhexyl)piperazin-1-yl)ethan-1-one] | 100 to 130% | ≤ 0.1 µM
O=C(Cc1ccc(OCCCC2CC3(CCN(c4ncc(Cl)cn4)CC3)C2)cc1F)N1CCN(C[C@H](O)[C@@H](O)[C@H](O)[C@H](O)CO)CC1 [Example 111, 2-(4-(3-(7-(5-chloropyrimidin-2-yl)-7-azaspiro[3.5]nonan-2-yl)propoxy)-2-fluorophenyl)-1-(4-((2S,3R,4R,5R)-2,3,4,5,6-pentahydroxyhexyl)piperazin-1-yl)ethan-1-one] | 100 to 130% | ≤ 0.1 µM
CCOc1cnc(N2CCC(CCCOc3cc(F)c(CC(=O)N4CCN(C[C@H](O)[C@@H](O)[C@H](O)[C@H](O)CO)CC4)c(F)c3)CC2)nc1 [Example 97, 2-(4-(3-(1-(5-ethoxypyrimidin-2-yl)piperidin-4-yl)propoxy)-2,6-difluorophenyl)-1-(4-((2S,3R,4R,5R)-2,3,4,5,6-pentahydroxyhexyl)piperazin-1-yl)ethan-1-one] | 100 to 130% | ≤ 0.1 µM
